From PubChem BioAssay (NCI)
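Grown in 96-well plates, cells were treated for 48 hours with each compound at five concentrations. Insufficient inhibition: endpoint recorded as highest concentration tested. GI50 is the concentration that inhibits growth by half. TGI denotes the concentration required for complete inhibition of growth.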

Columns and labels:
Test in all cases: NCI tumour cell line growth inhibition, 48 h
[1] = system: HS 578T breast
[2] = system: DMS 273 small cell lung
[3] = system: K-562 leukemia
[4] = system: PC-3 prostate
[5] = system: LXFL 529 NSCLC
[6] = system: LOX IMVI melanoma
[7] = system: CCRF-CEM leukemia
[8] = system: SNB-19 CNS
[9] = system: XF 498 CNS
[10] = system: OVCAR-3 ovarian
[11] = system: HT29 colon
[12] = system: MDA-MB-435
[13] = system: HCC-2998 colon
[14] = system: SK-MEL-5 melanoma
[15] = system: MDA-MB-231 breast
[16] = system: ACHN renal
[17] = system: DLD-1 colon
[18] = system: MDA-N
[19] = system: IGROV1 ovarian
[20] = system: KM12 colon
[21] = system: SF-268 CNS
[22] = system: DMS 114 small cell lung
[23] = system: UO-31 renal
[24] = system: EKVX NSCLC
[25] = system: DU-145 prostate
[26] = system: SK-MEL-28 melanoma
[27] = system: COLO 205 colon
[28] = system: SK-MEL-2 melanoma
[29] = system: OVCAR-8 ovarian
[30] = system: OVCAR-4 ovarian
[31] = system: U251 CNS
[32] = system: BT-549 breast
[33] = system: HL-60(TB) leukemia
[34] = system: NCI-H460 lung
[35] = system: 786-0 renal
[36] = system: MCF7 breast
[37] = system: TK-10 renal
[38] = system: SW-620 colon
[39] = system: HCT-116 colon
[40] = system: SNB-75 CNS
[41] = system: SNB-78 CNS
[42] = system: SF-539 CNS
[43] = system: SN12C renal
[44] = system: SR leukemia
[45] = system: SK-OV-3 ovarian
[46] = system: A549 NSCLC
[47] = system: CAKI-1 renal
[48] = system: UACC-62 melanoma
[49] = system: M19-MEL melanoma
[50] = system: HOP-62 NSCLC
[51] = system: M14 melanoma
[52] = system: MOLT-4 leukemia
[53] = system: SF-295 CNS
[54] = system: OVCAR-5 ovarian
[55] = system: MALME-3M melanoma
[56] = system: NCI-H522 lung
[57] = system: NCI-H226 lung
[58] = system: HOP-92 NSCLC
[59] = system: RPMI-8226 leukemia
[60] = system: NCI/ADR-RES ovarian
[61] = system: A498 renal
[62] = system: RXF 393 renal
[63] = system: KM20L2 colon
[64] = system: NCI-H23 lung
[65] = system: HCT-15 colon
[66] = system: T-47D breast
[67] = system: UACC-257 melanoma

Compound `C[N+](C)(C)CC1CCc2ccccc2C1=O` (configuration not stated) has a TGI [1] of 35.4 µM, a TGI [2] of 15.1 µM and a TGI [3] of 21.9 µM. The TGI [4] was 29.1 µM, the TGI [5] was 8.54 µM and the TGI [6] was 41.5 µM. For the same compound, the TGI [7] was over 37.9 µM, the TGI [8] was 28.9 µM and the TGI [9] was 5.56 µM. For the same compound, the TGI [10] was 11.8 µM, the TGI [11] was 15.2 µM and the TGI [12] was 11 µM. For the same compound, the TGI [13] was 28.8 µM, the TGI [14] was 29.7 µM and the TGI [15] was 15.8 µM. For the same compound, the TGI [16] was 14.4 µM, the TGI [17] was 17 µM and the TGI [18] was 12.4 µM. It also gave a TGI [19] of 28.7 µM, a TGI [20] of 24.8 µM and a TGI [21] of 47.4 µM. The TGI [22] was 31 µM, the TGI [23] was 32.7 µM and the TGI [24] was 18.2 µM. It also gave a TGI [25] of 32.6 µM, a TGI [26] of 16.9 µM and a TGI [27] of 19.3 µM. The TGI [28] was 31.2 µM, the TGI [29] was 33.5 µM and the TGI [30] was 9.67 µM. For the same compound, the TGI [31] was 10.2 µM, the TGI [32] was 29.3 µM and the TGI [33] was 27.1 µM. It also gave a TGI [34] of 36.7 µM, a TGI [35] of 19.2 µM and a TGI [36] of 5.62 µM. It also gave a TGI [37] of 30.5 µM, a TGI [38] of 3.34 µM and a TGI [39] of 18.9 µM. It also gave a TGI [40] of 30.7 µM, a TGI [41] of 49.4 µM and a TGI [42] of 29.9 µM. It also gave a TGI [43] of 16.3 µM, a TGI [44] of 9.23 µM and a TGI [45] of 32.8 µM. For the same compound, the TGI [46] was 52.3 µM, the TGI [47] was 9.31 µM and the TGI [48] was 12 µM. It also gave a TGI [49] of 30.8 µM, a TGI [50] of 49.2 µM and a TGI [51] of 17.9 µM. The TGI [52] was 7.63 µM, the TGI [53] was 49.2 µM and the TGI [54] was 29.7 µM. The TGI [55] was 3.68 µM, the TGI [56] was 0.318 µM and the TGI [57] was 43.3 µM. It also gave a TGI [58] of 15.9 µM, a TGI [59] of 18.4 µM and a TGI [60] of 42.1 µM. It also gave a TGI [61] of 50.4 µM, a TGI [62] of 29.6 µM and a TGI [63] of 38.2 µM. The TGI [64] was 29.2 µM, the TGI [65] was 6.61 µM and the TGI [66] was 26.2 µM. For the same compound, the TGI [67] was 27.1 µM.
`NCCSCC(N)C(=O)O` (configuration not stated) was tested, and the TGI [2] was over 497 µM, the TGI [5] was over 497 µM and the TGI [6] was over 497 µM. For the same compound, the GI50 [7] was over 497 µM, the TGI [7] was over 497 µM and the TGI [8] was over 497 µM. It also gave a TGI [9] of over 497 µM, a GI50 [10] of over 497 µM and a TGI [10] of over 497 µM. It also gave a GI50 [11] of over 497 µM, a TGI [11] of over 497 µM and a TGI [13] of over 497 µM. It also gave a GI50 [14] of over 497 µM, a TGI [14] of over 497 µM and a GI50 [16] of over 497 µM. For the same compound, the TGI [16] was over 497 µM, the TGI [17] was over 497 µM and the GI50 [19] was over 497 µM. For the same compound, the TGI [19] was over 497 µM, the GI50 [20] was over 497 µM and the TGI [20] was over 497 µM. It also gave a TGI [21] of over 497 µM, a TGI [22] of over 497 µM and a TGI [24] of over 497 µM. It also gave a TGI [26] of over 497 µM, a GI50 [27] of over 497 µM and a TGI [27] of over 497 µM. It also gave a TGI [28] of over 497 µM, a TGI [29] of over 497 µM and a TGI [30] of over 497 µM. It also gave a TGI [31] of over 497 µM, a TGI [33] of over 497 µM and a GI50 [34] of over 497 µM. It also gave a TGI [34] of over 497 µM, a TGI [37] of over 497 µM and a GI50 [38] of over 497 µM. For the same compound, the TGI [38] was over 497 µM, the GI50 [39] was over 497 µM and the TGI [39] was over 497 µM. It also gave a GI50 [40] of 470 µM, a TGI [40] of over 497 µM and a TGI [41] of over 497 µM. For the same compound, the TGI [42] was over 497 µM, the TGI [43] was over 497 µM and the TGI [44] was over 497 µM. It also gave a TGI [45] of over 497 µM, a GI50 [46] of over 497 µM and a TGI [46] of over 497 µM. For the same compound, the TGI [48] was over 497 µM, the TGI [49] was over 497 µM and the TGI [50] was over 497 µM. For the same compound, the TGI [51] was over 497 µM, the TGI [52] was over 497 µM and the TGI [53] was over 497 µM. For the same compound, the TGI [54] was over 497 µM, the GI50 [55] was over 497 µM and the TGI [55] was over 497 µM. For the same compound, the GI50 [56] was over 497 µM, the TGI [56] was over 497 µM and the TGI [57] was over 497 µM. For the same compound, the TGI [58] was over 497 µM, the GI50 [59] was over 497 µM and the TGI [59] was over 497 µM. The TGI [61] was over 497 µM, the TGI [62] was over 497 µM and the TGI [63] was over 497 µM. For the same compound, the TGI [64] was over 497 µM, the GI50 [65] was over 497 µM and the TGI [65] was over 497 µM. The TGI [67] was over 497 µM.
